{
  "source": "patent US20170128418A1",
  "about": "“COMPOSITIONS AND METHODS FOR IMPROVING LACTATION” (UNIVERSITY OF CINCINNATI, priority 2012, published 2017)",
  "key": {"[1]": {"test_system": "vascular smooth muscle cells", "settings": "previous study; cited from earlier work"}, "HC11 cells": {"test_system": "HC11 cells", "assay": "PTHrP gene expression in lactogen-treated HC11 cells (real-time RT-PCR)", "format": "cell-based, mouse", "settings": "lactogen-treated rodent HC11 cells", "text": "(§1) Cell culture. Primary bovine mammary epithelial cells grown in collagen gels were induced to differentiate by release of the gel from the substratum, and treating with lactogenic hormones as described (15,31). The mouse mammary epithelial cells (HC11) were maintained under growth medium conditions, and lactogen-induced by treatment of 3 day confluent cultures with prolactin, insulin, and cortisol as previously described (17).\n(§2) Quantitative real-time RT-PCR amplification. Total RNA was isolated using TRIreagent® (Molecular Research) following manufacturer's procedures. RNA quality was determined through spectrophometric methods on the Nanodrop 2000 (Thermo Scientific). A total of […] was reverse transcribed using the QuantiTect reverse transcription kit (Qiagen). Quantitative real-time RT-PCR was performed using the Applied Biosystems Step One Plus system (Applied Biosystems) using fast SYBR green master mix (Applied Biosystems). The following conditions were utilized: 95′C for 20 sec. followed by 40 cycles of 95′C for 3 sec., 60′C for 30 sec.\nTo determine whether PTHrP expression in mammary epithelial cells was directly responsive to 5-HT two cell models of lactogenic mammary epithelium were studied: lactogen-treated rodent HC11 cells, and primary bovine mammary epithelial cells embedded in floating collagen gels. […]"}, "[2]": {"test_system": "primary bovine mammary epithelial cells", "assay": "PTHrP gene expression in primary bovine mammary epithelial cells in floating collagen gels (real-time RT-PCR)", "format": "cell-based", "settings": "primary bovine mammary epithelial cells embedded in floating collagen gels", "text": "as §1\nPrimary bovine mammary epithelial cells (pBMEC) were obtained as a generous gift from Dr. Robert Collier at the University of Arizona and cultured as previously described (15, 31).\nas §2, with “30 sec. […]” for “30 sec.”"}, "PTHrP": {"test_system": "PTHrP", "assay": "5-HTP injection rescue of TPH1 knockout mice, plasma PTHrP (IRMA)", "format": "in vivo", "settings": "TPH1 knockout mice injected with 5-HTP; P<0.0001, R=0.92", "experimental": "TPH1^−/−, and corresponding wild type control animals (C57BL/6J genetic background) were bred and maintained in our animal facility. All experiments were performed under protocols approved by the University of Cincinnati Institutional Animal Care and Use Committee. Plasma was collected for PTHrP assay from non-lactating wild type mice and both wild type and TPH1^−/− animals on day 10 of lactation. Mammary gland tissues (#4 glands counted from most rostral) were collected for immunostaining from TPH1^−/− animals and wild type controls on day 10 of lactation, and were fixed in 4% paraformaldehyde, before being paraffin embedded and sectioned.\nPTHrP IRMA. Plasma PTHrP levels were measured using a two-site immunoradiometric assay specific for PTHrP 1-86 (Becton Dickinson), following the manufacturer's instructions. The detection limit (blank serum+1 standard deviation) was 0.3 pM under the conditions of this assay.\nThe conversion of L-tryptophan to 5-hydroxytryptophan (5-HTP) is the rate-limiting step in 5-HT synthesis; therefore we injected 5-HTP to bypass the enzyme deficiency in TPH1 mice, and measured PTHrP plasma levels."}, "[3]": {"assay": "Circulating 5-HT and PTHrP in rats fed a 5-HTP supplemented diet", "format": "in vivo", "settings": "rats fed 0.2% 5-HTP diet from d13 pregnancy through d9 lactation vs control breeder diet", "experimental": "FIG. 1 depicts the circulating levels of (A) serum 5-HT and (B) plasma PTHrP in rats fed 0.2% 5-HTP from d13 pregnancy through d9 lactation compared to rats fed a control breeder diet.\nBased on the foregoing results, studies were conducted to establish, in practice, that feeding a diet supplemented with 5-HTP would elevate circulating levels of serotonin (5-HT) and PTHrP. Rats were fed a diet supplemented with 0.2% 5-HTP, and circulating levels of 5-HT (serum) and PTHrP (plasma) in the rats fed 0.2% 5-HTP from d13 pregnancy through d9 lactation were compared to rats fed a control breeder diet."}, "[4]": {"assay": "Serum and milk calcium in rats fed a 5-HTP supplemented diet", "format": "in vivo", "settings": "rats fed 0.2% 5-HTP diet from d13 pregnancy, vs control diet", "experimental": "FIG. 2 depicts the serum and milk calcium concentrations in rats fed 0.2% 5-HTP (n=15) from d13 pregnancy-d9 lactation compared to rats fed a control (n=15) breeder diet at (A) day 1 of lactation and (B) day 9 of lactation.\nBased on the foregoing results, studies were conducted to establish, in practice, that feeding a diet supplemented with 5-HTP would elevate circulating calcium levels in lactating animals. Serum and milk calcium concentrations were measured in rats fed a diet supplemented with 0.2% 5-HTP (n=15) from d13 pregnancy-d9 lactation, compared to rats fed a control (n=15) diet. Serum calcium concentrations were elevated by 5-HTP supplementation on dl of lactation, and subsequently, milk calcium levels were elevated by 5-HTP on d9 of lactation (FIG. 2)."}, "mammary cells": {"test_system": "mammary cells", "assay": "PTHrP induction by prolactin in mammary epithelium cell cultures", "format": "cell-based", "settings": "conventional cell cultures of mammary epithelium", "text": "PTHrP is undetectable in the circulation except during lactation, in advanced metastatic disease, or in patients with hyperprolactinemia."}},
  "data": [
    {"molecule": "NCCc1c[nH]c2ccc(O)cc12", "note": "[5-HT, serotonin]", "values": [
      {"measurement": "PTHrP expression", "setting": "[1]", "result": "induced"},
      {"measurement": "PTHrP gene expression induction", "setting": "HC11 cells", "result": 8, "unit": "fold"},
      {"measurement": "PTHrP gene expression induction", "setting": "[2]", "result": 20, "unit": "fold"}
    ]},
    {"molecule": "N[C@@H](Cc1c[nH]c2ccc(O)cc12)C(=O)O", "note": "[5-HTP, 5-Hydroxytryptophan]", "values": [
      {"measurement": "plasma PTHrP", "setting": "PTHrP", "result": "time-dependent increase"},
      {"measurement": "circulating 5-HT (serum)", "setting": "[3]", "result": "elevation"},
      {"measurement": "circulating PTHrP (plasma)", "setting": "[3]", "result": "elevation"},
      {"measurement": "milk calcium levels", "setting": "[4]; d9 of lactation", "result": "elevated"},
      {"measurement": "serum calcium concentrations", "setting": "[4]; dl of lactation", "result": "elevated"}
    ]},
    {"molecule": "prolactin (protein, UniProt P01236 29-227, looked up, prolactin hormone) Prolactin: LPICPGGAARCQVTLRDLFDRAVVLSHYIHNLSSEMFSEFDKRYTHGRGFITKAINSCHTSSLATPEDKEQAQQMNQKDFLSLIVSILRSWNEPLYHLVTEVRGMQEAPEAILSKAVEIEEQTKRLLEGMELIVSQVHPETKENEIYPVWSGLPSLQMADEESRLSAYYNLLHCLRRDSHKIDNYLKLLKCRIIHNNNC", "values": [
      {"measurement": "PTHrP induction", "setting": "mammary cells", "result": "did not induce"}
    ]}
  ]
}
